Measurements as given in patent US8669256B2, “Substituted thieno[2,3-b]pyrazine compounds as modulators of B-Raf kinase activity” (Merck Sharp & Dohme B.V., priority 2010, dated 2014).
Like-named read-outs stand apart in the source and are kept apart here.

How the values were obtained:
[1] = tested on: phosphorylation of ERK1/2 in A375 cells containing mutant B-Raf (V600E); test: Phospho-ERK FACE assay in A375 (B-Raf mutated) melanoma cell line; assay type: cell-based; conditions: Homo sapiens, read-out: IC50, A375 melanoma phospho-ERK assay
Method in brief: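 A375 cells (B-Raf V600E), serum-starved overnight in 0.1% FBS, exposed to compounds for 2 hours at 37° C (1% DMSO). Fixed cells probed with anti-phospho-ERK1/2 (Thr202/Tyr204, Thr185/Tyr187) antibody overnight at 4° C, total ERK on a separate plate. HRP-secondary chemiluminescence read-out.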

[2] = biological target: T1, GST-tagged human recombinant active B-Raf (Δ1-415) (Homo sapiens, UniProt P15056); test: B-Raf kinase activity, IMAP coupled assay (B-Raf/MEK1/ERK2, fluorescence polarization); assay type: biochemical; conditions: bounds also given as pIC50 (>6, >7, >8); 60 min pre-incubation with compound, ATP 50 μM; read-out: IC50, B-Raf IMAP assay
T1 construct: GST; purchased Upstate/Millipore
Method in brief: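 Coupled cascade: GST-B-Raf (Δ1-415; 0.2 U/ml) pre-incubated with compound (1% DMSO) 60 min at room temperature, then unactive MEK1 (64 ng/ml), unactive ERK2 (600 ng/ml), 50 nM fluorescein-Erktide and 50 μM ATP added for 60 min at 30 °C, pH 7.2 Tris buffer. Phosphopeptide captured on IMAP beads (60 min); fluorescence polarization read.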

[3] = A-375, A375 cells, 2 hours incubation, class between 10 μM and 1 μM (5<pIC50<6)
[4] = A-375, A375 cells, 2 hours incubation, between 1 μM and 100 nM (6<pIC50<7)
[5] = A-375, A375 cells, 2 hours incubation, class given as below 100 nM (pIC50>7)

T1 sequence (P15056 416-766, stated change not applied): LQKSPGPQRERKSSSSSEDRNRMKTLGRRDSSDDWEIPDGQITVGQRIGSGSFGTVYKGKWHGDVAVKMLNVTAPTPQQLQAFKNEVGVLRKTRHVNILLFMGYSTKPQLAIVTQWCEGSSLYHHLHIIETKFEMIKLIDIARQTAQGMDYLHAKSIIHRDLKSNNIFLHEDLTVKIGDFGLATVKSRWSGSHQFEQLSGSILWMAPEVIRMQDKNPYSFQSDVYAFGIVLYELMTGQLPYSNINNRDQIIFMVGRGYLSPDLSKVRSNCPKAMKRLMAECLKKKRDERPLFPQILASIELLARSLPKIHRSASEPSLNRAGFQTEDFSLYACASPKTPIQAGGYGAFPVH

Row | IC50 [1, 3] [nM] | IC50 [2] [nM] | IC50 [1, 4] [nM] | IC50 [1, 5] [nM] | Structure (SMILES) | IC50 ([1]; A-375, 2 h) [nM]
1 | 1000 to 10000 | < 100 | – | – | Cc1ccc(NC(=O)Nc2cccc(C(C)(C)C#N)c2)cc1NC(=O)c1cc2nccnc2s1 [Example 40, N-(5-(3-(3-(2-cyanopropan-2-yl)phenyl)ureido)-2-methylphenyl)thieno[2,3-b]pyrazine-6-carboxamide] | –
2 | – | < 10 | 100 to 1000 | – | Cc1ccc(NC(=O)c2cccc(C(C)(C)C#N)c2)cc1NC(=O)c1sc2nccnc2c1C [Example 42, N-(5-(3-(2-cyanopropan-2-yl)benzamido)-2-methylphenyl)-7-methylthieno[2,3-b]pyrazine-6-carboxamide] | –
3 | – | < 10 | 100 to 1000 | – | Cc1ccc(NC(=O)c2cccc(C(C)(C)C#N)c2)cc1NC(=O)c1sc2nccnc2c1C#N [Example 43, 7-cyano-N-(5-(3-(2-cyanopropan-2-yl)benzamido)-2-methylphenyl)thieno[2,3-b]pyrazine-6-carboxamide] | –
4 | – | < 10 | 100 to 1000 | – | C=Cc1c(C(=O)Nc2cc(NC(=O)c3cccc(C(C)(C)C#N)c3)ccc2C)sc2nccnc12 [Example 44, N-(5-(3-(2-cyanopropan-2-yl)benzamido)-2-methylphenyl)-7-vinylthieno[2,3-b]pyrazine-6-carboxamide] | –
5 | – | < 100 | – | < 100 | CCNc1c(C(=O)Nc2cc(NC(=O)c3cccc(C(C)(C)C#N)c3)ccc2C)sc2nccnc12 [Example 46, N-(5-(3-(2-cyanopropan-2-yl)benzamido)-2-methylphenyl)-7-(ethylamino)thieno[2,3-b]pyrazine-6-carboxamide] | –
6 | – | < 100 | 100 to 1000 | – | Cc1ccc(NC(=O)c2cccc(C(C)(C)C#N)c2)cc1NC(=O)c1sc2ncc(C#N)nc2c1N [Example 49, 7-amino-2-cyano-N-(5-(3-(2-cyanopropan-2-yl)benzamido)-2-methylphenyl)thieno[2,3-b]pyrazine-6-carboxamide] | –
7 | – | < 100 | – | < 100 | Cc1ccc(NC(=O)c2cccc(C(C)(C)C#N)c2)cc1NC(=O)c1sc2ncc(-c3ccco3)nc2c1N [Example 50, 7-amino-N-(5-(3-(2-cyanopropan-2-yl)benzamido)-2-methylphenyl)-2-(furan-2-yl)thieno[2,3-b]pyrazine-6-carboxamide] | –
8 | – | < 100 | 100 to 1000 | – | CC(C)(C#N)c1cccc(C(=O)Nc2ccc(Br)c(NC(=O)c3cc4nccnc4s3)c2)c1 [Example 51, N-(2-bromo-5-(3-(2-cyanopropan-2-yl)benzamido)phenyl)thieno[2,3-b]pyrazine-6-carboxamide] | –
9 | – | < 100 | 100 to 1000 | – | Cc1ccc(NC(=O)c2cccc(C(F)(F)F)c2)cc1NC(=O)c1cc2nc(-c3cccnc3)cnc2s1 [Example 53, N-(2-methyl-5-(3-(trifluoromethyl)benzamido)phenyl)-2-(pyridin-3-yl)thieno[2,3-b]pyrazine-6-carboxamide] | –
10 | – | < 10 | – | < 100 | Cc1ccc(NC(=O)c2cccc(C(F)(F)F)c2)cc1NC(=O)c1sc2nccnc2c1N [Example 54, 7-amino-N-(2-methyl-5-(3-(trifluoromethyl)benzamido)phenyl)thieno[2,3-b]pyrazine-6-carboxamide] | –
11 | 1000 to 10000 | < 100 | – | – | CC(C)(C#N)c1cccc(C(=O)Nc2cc(NC(=O)c3cc4nccnc4s3)c(F)cc2F)c1 [Example 55, N-(5-(3-(2-cyanopropan-2-yl)benzamido)-2,4-difluorophenyl)thieno[2,3-b]pyrazine-6-carboxamide] | –
12 | – | < 10 | 100 to 1000 | – | Cc1ccc(NC(=O)c2cccc(C(C)(C)C#N)c2)cc1NC(=O)c1cc2ncc(NCCN(C)C)nc2s1 [Example 61, N-(5-(3-(2-cyanopropan-2-yl)benzamido)-2-methylphenyl)-3-(2-(dimethylamino)ethylamino)thieno[2,3-b]pyrazine-6-carboxamide] | –
13 | – | < 10 | 100 to 1000 | – | Cc1ccc(NC(=O)c2cccc(C(C)(C)C#N)c2)cc1NC(=O)c1cc2ncc(NCCN3CCOCC3)nc2s1 [Example 63, N-(5-(3-(2-cyanopropan-2-yl)benzamido)-2-methylphenyl)-3-(2-morpholinoethylamino)thieno[2,3-b]pyrazine-6-carboxamide] | –
14 | – | < 10 | 100 to 1000 | – | COCCNc1cnc2cc(C(=O)Nc3cc(NC(=O)c4cccc(C(C)(C)C#N)c4)ccc3C)sc2n1 [Example 65, N-(5-(3-(2-cyanopropan-2-yl)benzamido)-2-methylphenyl)-3-(2-methoxyethylamino)thieno[2,3-b]pyrazine-6-carboxamide] | –
15 | 1000 to 10000 | < 10 | – | – | Cc1ccc(NC(=O)c2cccc(C(C)(C)C#N)c2)cc1NC(=O)c1cc2ncc(NCCO)nc2s1 [Example 66, N-(5-(3-(2-cyanopropan-2-yl)benzamido)-2-methylphenyl)-3-(2-hydroxyethylamino)thieno[2,3-b]pyrazine-6-carboxamide] | –
16 | – | < 100 | 100 to 1000 | – | CCNc1cnc2cc(C(=O)Nc3cc(NC(=O)c4cccc(C(C)(C)C#N)c4)ccc3C)sc2n1 [Example 67, N-(5-(3-(2-cyanopropan-2-yl)benzamido)-2-methylphenyl)-3-(ethylamino)thieno[2,3-b]pyrazine-6-carboxamide] | –
17 | – | < 100 | 100 to 1000 | – | Cc1ccc(NC(=O)c2cccc(C(C)(C)C#N)c2)cc1NC(=O)c1cc2ncc(-c3cccnc3)nc2s1 [Example 68, N-(5-(3-(2-cyanopropan-2-yl)benzamido)-2-methylphenyl)-3-(pyridin-3-yl)thieno[2,3-b]pyrazine-6-carboxamide] | –
18 | – | < 10 | – | < 100 | Cc1ccc(NC(=O)c2cccc(C(C)(C)C#N)c2)cc1NC(=O)c1cc2ncc(-c3ccncc3)nc2s1 [Example 69, N-(5-(3-(2-cyanopropan-2-yl)benzamido)-2-methylphenyl)-3-(pyridin-4-yl)thieno[2,3-b]pyrazine-6-carboxamide] | –
19 | – | < 100 | 100 to 1000 | – | Cc1cnc2cc(C(=O)Nc3cc(NC(=O)c4cccc(C(C)(C)C#N)c4)ccc3C)sc2n1 [Example 70, N-(5-(3-(2-cyanopropan-2-yl)benzamido)-2-methylphenyl)-3-methylthieno[2,3-b]pyrazine-6-carboxamide] | –
20 | – | < 100 | 100 to 1000 | – | Cc1ccc(NC(=O)c2cccc(C(C)(C)C#N)c2)cc1C(=O)Nc1cc2nccnc2s1 [Example 73, 5-(3-(2-cyanopropan-2-yl)benzamido)-2-methyl-N-(thieno[2,3-b]pyrazin-6-yl)benzamide] | –

Row | Structure (SMILES) | IC50 [1, 3] [nM] | IC50 [2] [nM] | IC50 [1, 4] [nM] | IC50 [1, 5] [nM] | IC50 ([1]; A-375, 2 h) [nM]
21 | Cc1ccc(NC(=O)c2cccc(C(C)(C)C#N)c2)cc1NC(=O)c1sc2nccnc2c1Br [Example 41, 7-bromo-N-(5-(3-(2-cyanopropan-2-yl)benzamido)-2-methylphenyl)thieno[2,3-b]pyrazine-6-carboxamide] | – | < 10 | – | – | 100 to 1000
